Where “and” joins values, the source holds several entries; their conditions need not be identical. Equal values may be shown once.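 Test compounds were applied to cells in 96-well plates for 48 hours at 5 doses. GI50 marks 50% less growth. TGI: concentration producing complete growth inhibition.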

The first experiment has as its system NCI/ADR-RES ovarian. Nature of the experiment: NCI-60 cell line screen, 48 h.
As to `COc1cc2cc(Oc3ccc(NC(=O)Nc4ccc(Cl)c(C(F)(F)F)c4)cc3)c(C)nc2cc1OCCN1CCCCC1`, the GI50 was 1.69 µM and the TGI was 3.27 µM.

Molecule `CC1=CC(=O)c2c(O)cccc2C1=O` gave a TGI of 3.16 µM.

Turning to `O=C(CCN1CCCC1)Nc1ccc2c(NCc3ccc(F)cc3)c3ccccc3nc2c1`, the GI50 is 9.11 µM and the TGI was determined as 43.9 µM.

Take `N#CC(C#N)=Cc1ccc(-c2ccc(-c3nc4ccccc4s3)cc2)o1`: the GI50 was 4.16 µM and the TGI was determined as 14.3 µM.

Take `O=C1C(Cl)=C(N/N=c2/[nH][nH]/c(=N/NC3=C(Cl)C(=O)c4ccccc4C3=O)c3ccccc23)C(=O)c2ccccc21`: the GI50 is 21.4 µM and the TGI is 73.2 µM.

A further experiment concerns RPMI-8226 leukemia. The experiment is described as follows: NCI-60 cell line screen, 48 h.
The molecule `Nc1cc(=O)[nH]c(SC2=NC(N)CC(O)C2)n1` (configuration not stated) had a TGI of more than 100 µM.

For the molecule `CC(=O)[O][Pb]([O]C(C)=O)([c]1ccccc1)[c]1ccccc1`, the GI50 was 4.12 µM and the TGI was more than 100 µM.

For the molecule `Cc1ccc2[nH]c(C(=O)NN3C(=O)CSC34CCCCC4C)c(-c3ccccc3)c2c1` (configuration not stated), the GI50 is 13.8 µM and the TGI was 35.2 µM.

`CN1CCc2c1nc(-c1ccccc1)c1c2N(C)CC1` returned a TGI of more than 100 µM.

Consider `CCC[CH2][Sn]([CH2]CCC)([O]C(C)=O)[O]C(C)=O`, for which the GI50 is 0.321 µM and the TGI was determined as 2.11 µM.

The molecule `COC(=O)CCC(=O)N1Cc2cc(C)ccc2N(C(=O)CCC(=O)OC)Cc2cc(C)ccc21` came in with a TGI of more than 100 µM.

In the case of `C=C1C(=O)O[C@H]2C[C@@H](C)[C@@H]3CC(=O)OC[C@@]3(C)CC12` (some centres not stated), the TGI was found to be 75.2 µM.

Regarding `CCOC(=O)c1c2c(n(CC(C)C)c1C)-c1nc[nH]c1C(=O)C2=O`, the GI50 was 8.91 µM and the TGI was 21.6 µM.

For `CCc1ccc(NCc2cc(OC)c(OC)c(OC)c2)cc1`, the TGI is 40.7 µM and 52 µM.

In turn, `CS(=O)(=O)CC1=Nc2nnc(CCCCCCCc3nnc4n3C(=O)C(CS(C)(=O)=O)=N4)n2C1=O` gave a TGI of more than 100 µM.

On to `COc1ccccc1[N-]C(C1=C([O-])c2ccccc2C1=O)c1ccccc1.COc1ccccc1[N-]C(C1=C([O-])c2ccccc2C1=O)c1ccccc1.[Cu+2]` (configuration not stated), for which the GI50 is 3.9 µM and the TGI is more than 100 µM.

As to `O=C(NCCCCCCNC(=O)c1cccc2ccccc12)c1cccc2ccccc12`, the TGI was more than 100 µM.

In turn, `COC12C=CC(CC1)c1c(O)ccc(O)c12` (configuration not stated) yielded a TGI of more than 100 µM.

Molecule `CC1=C2CCCC2C/C(=N/Nc2ccc([N+](=O)[O-])cc2[N+](=O)[O-])CC1` (configuration not stated) gave a TGI of more than 100 µM.

With `CC1CC2C(=O)NC(=O)C2c2[nH]c3ccccc3c21` (configuration not stated), the TGI is more than 100 µM.

Consider `CC1=CC(=O)c2c(O)cccc2C1=O`, for which the TGI was found to be 1.83 µM.

Take `Cc1ccc2c(c1)C1(C)OC(CC(N)C1O)O2` (configuration not stated): the TGI was more than 100 µM.

As to `COC(=O)[C@@H]1CSC(=S)N1C(=O)C[C@H]1CC=CC[C@H]1CC(=O)Sc1ccccc1`, the TGI worked out at 61.7 µM.

In turn, `CC1(Sc2ccccc2)CN(Cc2ccccc2)C1=O` (configuration not stated) had a TGI of more than 100 µM.

In turn, `C=C1C(=O)OC2CC3(C)C=CC(=O)C(=C)C3CC12` (configuration not stated) showed a TGI of 3.22 µM.

In the case of `COc1cccc(OC(=O)c2ccccc2Nc2ccnc(C(F)(F)F)c2)c1`, the GI50 was 1.01 µM and the TGI turned out to be 3.86 µM.

Molecule `CCOP(=O)(OCC)C1CCCCOC1=O` (configuration not stated) gave a TGI of more than 100 µM.

In the case of `O=C1C(Cl)=C(N/N=c2/[nH][nH]/c(=N/NC3=C(Cl)C(=O)c4ccccc4C3=O)c3ccccc23)C(=O)c2ccccc21`, the GI50 was 10.1 µM and the TGI came to 44.1 µM.

The test system of the next experiment is RXF 393 renal. The experiment is described as follows: NCI-60 cell line screen, 48 h.
For the molecule `CN(C)c1ccc2c(NCCCCCCNc3ccnc4cc(N(C)C)ccc34)ccnc2c1`, the TGI came to 38.4 µM.

As to `CC(=O)[O][Pb]([O]C(C)=O)([c]1ccccc1)[c]1ccccc1`, the GI50 is 1.41 µM and the TGI amounted to 5.69 µM.

In turn, `CN1CCc2c1nc(-c1ccccc1)c1c2N(C)CC1` showed a TGI of more than 100 µM.

Consider `CCC[CH2][Sn]([CH2]CCC)([O]C(C)=O)[O]C(C)=O`, for which the GI50 was 0.195 µM and the TGI was 0.654 µM.

Regarding `COC(=O)CCC(=O)N1Cc2cc(C)ccc2N(C(=O)CCC(=O)OC)Cc2cc(C)ccc21`, the TGI was more than 100 µM.

For `CCOC(=O)c1c2c(n(CC(C)C)c1C)-c1nc[nH]c1C(=O)C2=O`, the GI50 was 13.9 µM and the TGI worked out at 26.8 µM.

As to `CS(=O)(=O)CC1=Nc2nnc(CCCCCCCc3nnc4n3C(=O)C(CS(C)(=O)=O)=N4)n2C1=O`, the TGI was more than 100 µM.

The molecule `O=C(NCCCCCCNC(=O)c1cccc2ccccc12)c1cccc2ccccc12` registered a TGI of 23.8 µM.

In turn, `COC12C=CC(CC1)c1c(O)ccc(O)c12` (configuration not stated) showed a TGI of more than 100 µM.

As to `CC1=CC(=O)c2c(O)cccc2C1=O`, the TGI was found to be 3.07 µM.

For `Cc1ccc2c(c1)C1(C)OC(CC(N)C1O)O2` (configuration not stated), the TGI is more than 100 µM.

Regarding `COC(=O)[C@@H]1CSC(=S)N1C(=O)C[C@H]1CC=CC[C@H]1CC(=O)Sc1ccccc1`, the TGI was 30.4 µM.

`CC1(Sc2ccccc2)CN(Cc2ccccc2)C1=O` (configuration not stated) yielded a TGI of more than 100 µM.

Regarding `O=C(CCN1CCCC1)Nc1ccc2c(NCc3ccc(F)cc3)c3ccccc3nc2c1`, the GI50 was 0.401 µM and the TGI amounted to 1.61 µM.

`C=C1C(=O)OC2CC3(C)C=CC(=O)C(=C)C3CC12` (configuration not stated) came in with a TGI of 4.46 µM.

`COc1cccc(OC(=O)c2ccccc2Nc2ccnc(C(F)(F)F)c2)c1`: the GI50 is 20.7 µM and the TGI was 59.6 µM.

On to `CCOP(=O)(OCC)C1CCCCOC1=O` (configuration not stated), for which the TGI was more than 100 µM.

`N#CC(C#N)=Cc1ccc(-c2ccc(-c3nc4ccccc4s3)cc2)o1`: the GI50 is 42.4 µM and the TGI is more than 100 µM.

Another experiment relates to SF-539 CNS. Nature of the experiment: NCI-60 cell line screen, 48 h.
Molecule `CN(C)c1ccc2c(NCCCCCCNc3ccnc4cc(N(C)C)ccc34)ccnc2c1` yielded a TGI of 45.2 µM.

On to `Nc1cc(=O)[nH]c(SC2=NC(N)CC(O)C2)n1` (configuration not stated), for which the TGI is more than 100 µM.

Regarding `CC(=O)[O][Pb]([O]C(C)=O)([c]1ccccc1)[c]1ccccc1`, the GI50 was 13.3 µM and the TGI was more than 100 µM.
